Source: patent US12371428B2 (Exelixis, Inc., priority 2019, dated 2025)

Assays:
[1] = molecular target: Human KDR (residues 790-1356) (Homo sapiens (Human), UniProt P35968); experiment: Human KDR kinase assay, HTRF KinEase (Example B-2); assay type: biochemical; settings: protocol of Example B-2 (other compounds)
How it was run: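 Human KDR residues 790-1356 (0.1 ng/well) in buffer with 5 mM MgCl2, 1 mM MnCl2, 1 mM DTT, biotinylated peptide substrate, ATP at Km (4.0 μM), 3% DMSO, 10 compound concentrations; 40 min, room temperature. EDTA stop, streptavidin-XL665/Eu-TK antibody HTRF read 665/620 nm; 4-parameter IC50.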

[2] = molecular target: Met (phospho-Met, HGF-stimulated PC-3 prostate cancer cells) (Homo sapiens (Human), UniProt P08581); experiment: Met autophosphorylation ELISA in PC-3 cells (Example F); assay type: cell-based; settings: cellular activity; Met autophosphorylation ELISA in PC-3 cells; read-out: c-Met IC50
How it was run: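 Sandwich ELISA for phospho-Met (panTyr) in PC-3 lysates. Cells starved 3 h serum-free, compound 1 h (8-pt curve, 0.3% DMSO), HGF 100 ng/mL 10 min. 100% = HGF + DMSO; 0% = HGF + reference inhibitor. IC50 by 4-parameter fit.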

[3] = molecular target: Human MER (residues 528-999) (Homo sapiens (Human), UniProt Q12866); experiment: Human Mer kinase assay, HTRF KinEase (Example C-2); assay type: biochemical; settings: protocol of Example C-2 (other compounds)
How it was run: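 Recombinant MER 528-999 (1 ng/well) in buffer with 5 mM MgCl2 and 1 mM DTT was reacted with biotinylated peptide and ATP at Km (40 μM) for 60 min at room temperature. EDTA stop with SA-XL665 and Eu3+ TK antibody, then 665/620 nm HTRF read; IC50 from 4-parameter fit.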

[4] = molecular target: KDR (phospho-KDR, VEGF165-stimulated HUVEC cells) (Homo sapiens (Human), UniProt P35968); experiment: KDR autophosphorylation ELISA in HUVEC cells (Example G); assay type: cell-based; settings: cellular activity; KDR autophosphorylation ELISA in HUVEC cells
How it was run: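 HUVEC cells, serum-starved 24 h, were treated 1 h with an 8-point compound dilution (0.3% DMSO) and then stimulated with 100 ng/mL VEGF165 for 5 min. Phospho-KDR in lysates was quantified by sandwich ELISA against a phospho-KDR standard. IC50 from a 4-parameter logistic fit, normalised between stimulated DMSO and unstimulated controls.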

Chain of Human MER (residues 528-999) (Q12866 528-999): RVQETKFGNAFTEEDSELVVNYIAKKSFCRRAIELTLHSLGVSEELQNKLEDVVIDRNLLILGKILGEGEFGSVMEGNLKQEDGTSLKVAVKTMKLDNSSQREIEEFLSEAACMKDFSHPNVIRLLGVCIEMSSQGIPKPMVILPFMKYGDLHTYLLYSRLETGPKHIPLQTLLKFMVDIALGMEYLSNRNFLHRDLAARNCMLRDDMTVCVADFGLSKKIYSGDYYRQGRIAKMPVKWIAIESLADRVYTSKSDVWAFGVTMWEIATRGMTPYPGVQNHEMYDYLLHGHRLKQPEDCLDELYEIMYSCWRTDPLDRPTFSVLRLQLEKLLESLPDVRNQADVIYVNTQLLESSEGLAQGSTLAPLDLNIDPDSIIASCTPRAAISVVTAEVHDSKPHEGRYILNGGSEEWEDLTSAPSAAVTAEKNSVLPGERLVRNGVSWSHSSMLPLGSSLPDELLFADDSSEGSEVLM
Chain of Met (phospho-Met, HGF-stimulated PC-3 prostate cancer cells) (P08581 25-1390): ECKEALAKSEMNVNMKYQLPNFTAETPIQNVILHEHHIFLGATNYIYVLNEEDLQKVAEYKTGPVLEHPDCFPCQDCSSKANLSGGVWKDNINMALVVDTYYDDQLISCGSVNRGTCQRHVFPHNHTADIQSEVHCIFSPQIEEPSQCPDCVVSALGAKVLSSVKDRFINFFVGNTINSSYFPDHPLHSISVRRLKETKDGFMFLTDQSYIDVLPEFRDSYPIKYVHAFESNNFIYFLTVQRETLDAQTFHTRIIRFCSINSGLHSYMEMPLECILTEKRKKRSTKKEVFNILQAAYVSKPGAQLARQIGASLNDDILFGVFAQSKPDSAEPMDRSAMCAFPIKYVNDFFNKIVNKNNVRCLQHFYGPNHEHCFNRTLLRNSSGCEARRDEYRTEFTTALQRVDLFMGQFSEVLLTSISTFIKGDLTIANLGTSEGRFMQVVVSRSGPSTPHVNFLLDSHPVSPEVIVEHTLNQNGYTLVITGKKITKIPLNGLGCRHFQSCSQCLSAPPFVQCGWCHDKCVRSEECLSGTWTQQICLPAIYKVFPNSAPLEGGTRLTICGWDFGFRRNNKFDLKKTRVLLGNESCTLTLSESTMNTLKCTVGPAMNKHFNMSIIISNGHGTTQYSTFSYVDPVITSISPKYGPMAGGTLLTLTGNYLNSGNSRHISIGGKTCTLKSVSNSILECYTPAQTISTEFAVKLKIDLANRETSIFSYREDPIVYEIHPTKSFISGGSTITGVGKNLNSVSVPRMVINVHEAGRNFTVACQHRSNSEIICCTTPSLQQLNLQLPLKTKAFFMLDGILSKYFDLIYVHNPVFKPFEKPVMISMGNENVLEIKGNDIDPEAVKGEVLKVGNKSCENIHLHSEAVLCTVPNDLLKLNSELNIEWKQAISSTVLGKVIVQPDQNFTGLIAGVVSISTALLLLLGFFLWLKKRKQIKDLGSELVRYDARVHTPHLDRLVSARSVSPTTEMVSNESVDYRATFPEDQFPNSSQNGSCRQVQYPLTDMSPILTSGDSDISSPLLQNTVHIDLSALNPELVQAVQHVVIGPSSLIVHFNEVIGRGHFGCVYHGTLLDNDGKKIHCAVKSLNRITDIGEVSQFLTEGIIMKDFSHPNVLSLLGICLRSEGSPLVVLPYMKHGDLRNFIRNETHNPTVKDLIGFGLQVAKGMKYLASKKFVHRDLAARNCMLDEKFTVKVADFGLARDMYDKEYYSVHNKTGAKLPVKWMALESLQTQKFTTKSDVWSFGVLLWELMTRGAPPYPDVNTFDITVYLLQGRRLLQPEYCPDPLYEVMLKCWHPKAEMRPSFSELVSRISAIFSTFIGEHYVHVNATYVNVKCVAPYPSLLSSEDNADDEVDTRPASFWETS
Chain of KDR (phospho-KDR, VEGF165-stimulated HUVEC cells) (P35968 20-1356): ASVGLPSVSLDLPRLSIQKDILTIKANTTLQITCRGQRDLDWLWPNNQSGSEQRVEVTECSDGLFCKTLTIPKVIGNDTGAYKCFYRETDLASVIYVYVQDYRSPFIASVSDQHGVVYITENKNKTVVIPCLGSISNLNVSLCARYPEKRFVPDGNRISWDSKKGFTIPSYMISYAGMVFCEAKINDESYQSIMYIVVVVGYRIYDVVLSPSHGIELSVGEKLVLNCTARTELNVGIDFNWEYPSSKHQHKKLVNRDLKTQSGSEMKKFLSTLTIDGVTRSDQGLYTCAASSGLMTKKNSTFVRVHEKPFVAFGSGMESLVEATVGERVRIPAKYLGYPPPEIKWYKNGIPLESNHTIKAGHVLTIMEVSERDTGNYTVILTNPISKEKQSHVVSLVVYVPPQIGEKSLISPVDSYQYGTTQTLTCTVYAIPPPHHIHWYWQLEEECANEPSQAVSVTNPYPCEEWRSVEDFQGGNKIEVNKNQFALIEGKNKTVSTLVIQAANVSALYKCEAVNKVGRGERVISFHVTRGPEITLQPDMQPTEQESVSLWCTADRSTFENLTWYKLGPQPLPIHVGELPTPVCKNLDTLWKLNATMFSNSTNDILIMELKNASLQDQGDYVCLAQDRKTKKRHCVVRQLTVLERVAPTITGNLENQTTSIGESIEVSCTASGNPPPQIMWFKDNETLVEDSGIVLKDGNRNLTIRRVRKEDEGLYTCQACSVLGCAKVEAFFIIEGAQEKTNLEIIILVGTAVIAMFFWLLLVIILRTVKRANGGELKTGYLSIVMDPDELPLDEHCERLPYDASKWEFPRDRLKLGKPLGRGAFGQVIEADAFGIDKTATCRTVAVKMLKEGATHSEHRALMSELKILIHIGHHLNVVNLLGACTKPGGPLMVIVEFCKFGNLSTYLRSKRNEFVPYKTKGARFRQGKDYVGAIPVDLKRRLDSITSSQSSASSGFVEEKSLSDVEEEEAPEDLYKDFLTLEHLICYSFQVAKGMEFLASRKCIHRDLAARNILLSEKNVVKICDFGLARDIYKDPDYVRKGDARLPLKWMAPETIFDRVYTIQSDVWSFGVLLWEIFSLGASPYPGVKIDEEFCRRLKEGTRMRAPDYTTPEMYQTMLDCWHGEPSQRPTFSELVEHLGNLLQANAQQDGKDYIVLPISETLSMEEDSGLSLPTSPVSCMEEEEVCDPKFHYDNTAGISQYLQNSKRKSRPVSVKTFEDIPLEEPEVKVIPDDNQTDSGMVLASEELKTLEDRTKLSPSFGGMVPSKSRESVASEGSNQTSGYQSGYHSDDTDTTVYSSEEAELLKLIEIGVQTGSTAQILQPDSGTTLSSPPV
Chain of Human KDR (residues 790-1356) (P35968 790-1356): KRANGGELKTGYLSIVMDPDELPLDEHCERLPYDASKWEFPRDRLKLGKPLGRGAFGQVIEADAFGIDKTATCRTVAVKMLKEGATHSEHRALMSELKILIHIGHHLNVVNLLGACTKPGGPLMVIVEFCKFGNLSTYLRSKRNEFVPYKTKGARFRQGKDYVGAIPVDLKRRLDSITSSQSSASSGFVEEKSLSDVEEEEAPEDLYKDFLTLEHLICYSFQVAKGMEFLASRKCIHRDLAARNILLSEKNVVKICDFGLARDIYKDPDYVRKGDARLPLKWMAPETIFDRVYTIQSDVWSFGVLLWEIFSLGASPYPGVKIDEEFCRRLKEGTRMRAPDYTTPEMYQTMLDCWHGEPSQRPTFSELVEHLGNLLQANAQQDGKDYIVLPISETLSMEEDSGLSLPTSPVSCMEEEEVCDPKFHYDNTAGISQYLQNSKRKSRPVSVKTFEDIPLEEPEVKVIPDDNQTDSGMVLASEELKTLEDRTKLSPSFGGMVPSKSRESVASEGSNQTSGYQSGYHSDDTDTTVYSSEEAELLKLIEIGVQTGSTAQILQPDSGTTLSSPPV

SMILES: COc1cc2nccc(Oc3ccc(NC(=O)c4cn(-c5ccn(C)n5)cc(-c5ccc(F)cc5)c4=O)cc3F)c2nc1OC [Compound 53, N-[4-[(6,7-Dimethoxy-1,5-naphthyridin-4-yl)oxy]-3-fluorophenyl]-5-(4-fluorophenyl)-1-(1-methylpyrazol-3-yl)-4-oxopyridine-3-carboxamide]
- IC50 [1]: > 300 nM
- IC50 [2]: < 100 nM
- IC50 [3]: < 100 nM
- IC50 [4]: > 300 nM

SMILES: Cc1cc(F)ccc1-c1c(C)n(C)cc(C(=O)Nc2ccc(Oc3ccnc4cc(C)c(F)nc34)c(F)c2)c1=O [Compound 429, N-[3-fluoro-4-[(6-fluoro-7-methyl-1,5-naphthyridin-4-yl)oxy]phenyl]-5-(4-fluoro-2-methylphenyl)-1,6-dimethyl-4-oxopyridine-3-carboxamide]
- IC50 [1]: > 300 nM
- IC50 [2]: < 100 nM
- IC50 [3]: < 100 nM
- IC50 [4]: > 300 nM

SMILES: CNC(=O)c1cc2c(Oc3ccc(NC(=O)c4c5n(cc(-c6ccc(F)cc6)c4=O)CCC5)cc3F)ccnc2cc1OC [Compound 408, 4-[2-fluoro-4-[[6-(4-fluorophenyl)-7-oxo-2,3-dihydro-1H-indolizine-8-carbonyl]amino]phenoxy]-7-methoxy-N-methylquinoline-6-carboxamide]
- IC50 [1]: < 100 nM
- IC50 [2]: < 100 nM
- IC50 [3]: < 100 nM
- IC50 [4]: < 100 nM

SMILES: CCc1cc2nccc(Oc3ccc(NC(=O)c4cnc(C)c(-c5ccc(F)cc5C)c4O)cc3F)c2nc1OC [Compound 421, N-[4-[(7-ethyl-6-methoxy-1,5-naphthyridin-4-yl)oxy]-3-fluorophenyl]-5-(4-fluoro-2-methylphenyl)-4-hydroxy-6-methylpyridine-3-carboxamide]
- IC50 [1]: > 300 nM
- IC50 [2]: < 100 nM
- IC50 [3]: < 100 nM
- IC50 [4]: < 100 nM

SMILES: COc1cc2nccc(Oc3ccc(NC(=O)c4cc(C#N)c(C)n(-c5ccc(F)cc5)c4=O)cc3F)c2nc1OC [Compound 87, 5-Cyano-N-[4-[(6,7-dimethoxy-1,5-naphthyridin-4-yl)oxy]-3-fluorophenyl]-1-(4-fluorophenyl)-6-methyl-2-oxopyridine-3-carboxamide]
- IC50 [1]: > 300 nM
- IC50 [2]: < 100 nM
- IC50 [3]: < 100 nM
- IC50 [4]: > 300 nM

SMILES: COCCOc1nc2c(Oc3ccc(NC(=O)c4cnc(C)c(-c5ccc(F)cc5)c4O)cc3F)ccnc2cc1C [Compound 436, N-[3-fluoro-4-[[6-(2-methoxyethoxy)-7-methyl-1,5-naphthyridin-4-yl]oxy]phenyl]-5-(4-fluorophenyl)-4-hydroxy-6-methylpyridine-3-carboxamide]
- IC50 [1]: 100 to 300 nM
- IC50 [2]: < 100 nM
- IC50 [3]: < 100 nM
- IC50 [4]: < 100 nM

SMILES: COc1cc2nccc(Oc3ccc(NC(=O)c4cnc(C)c(-c5ccc(F)cc5C)c4O)cc3)c2nc1OC(C)C [Compound 414, 5-(4-fluoro-2-methylphenyl)-4-hydroxy-N-[4-[(7-methoxy-6-propan-2-yloxy-1,5-naphthyridin-4-yl)oxy]phenyl]-6-methylpyridine-3-carboxamide]
- IC50 [1]: > 300 nM
- IC50 [2]: < 100 nM
- IC50 [3]: < 100 nM
- IC50 [4]: < 100 nM

SMILES: COc1cc2nccc(Oc3ccc(NC(=O)c4cnc(CO)c(-c5ccc(F)cc5)c4O)cc3F)c2nc1OC [Compound 71, N-[4-[(6,7-Dimethoxy-1,5-naphthyridin-4-yl)oxy]-3-fluorophenyl]-5-(4-fluorophenyl)-4-hydroxy-6-(hydroxymethyl)pyridine-3-carboxamide]
- IC50 [1]: < 100 nM
- IC50 [2]: < 100 nM
- IC50 [3]: < 100 nM
- IC50 [4]: < 100 nM

SMILES: COc1cc2nccc(Oc3ccc(NC(=O)c4cn(C)c(CO)c(-c5ccc(F)cc5)c4=O)cc3F)c2nc1OC [Compound 72, N-[4-[(6,7-Dimethoxy-1,5-naphthyridin-4-yl)oxy]-3-fluorophenyl]-5-(4-fluorophenyl)-6-(hydroxymethyl)-1-methyl-4-oxopyridine-3-carboxamide]
- IC50 [1]: 100 to 300 nM
- IC50 [2]: < 100 nM
- IC50 [3]: < 100 nM
- IC50 [4]: 100 to 300 nM

SMILES: COc1ccc2nccc(Oc3ccc(NC(=O)c4cn(C5CC5)c(C)c(-c5ccc(F)cc5)c4=O)cc3F)c2n1 [Compound 435, 1-cyclopropyl-N-[3-fluoro-4-[(6-methoxy-1,5-naphthyridin-4-yl)oxy]phenyl]-5-(4-fluorophenyl)-6-methyl-4-oxopyridine-3-carboxamide]
- IC50 [1]: > 300 nM
- IC50 [2]: < 100 nM
- IC50 [3]: < 100 nM
- IC50 [4]: > 300 nM

SMILES: COc1cc2nccc(Oc3ccc(NC(=O)c4c(C)nc(OC)c(-c5ccc(F)cc5)c4O)cc3F)c2nc1OC [Compound 442, N-[4-[(6,7-dimethoxy-1,5-naphthyridin-4-yl)oxy]-3-fluorophenyl]-5-(4-fluorophenyl)-4-hydroxy-6-methoxy-2-methylpyridine-3-carboxamide]
- IC50 [1]: < 100 nM
- IC50 [2]: < 100 nM
- IC50 [3]: < 100 nM
- IC50 [4]: < 100 nM

SMILES: COc1cc2nccc(Oc3ccc(NC(=O)c4n[nH]c(C)c(-c5ccc(F)cc5C)c4=O)cc3F)c2nc1OC [Compound 90, N-[4-[(6,7-Dimethoxy-1,5-naphthyridin-4-yl)oxy]-3-fluorophenyl]-5-(4-fluoro-2-methylphenyl)-6-methyl-4-oxo-1H-pyridazine-3-carboxamide]
- IC50 [1]: < 100 nM
- IC50 [2]: < 100 nM
- IC50 [3]: < 100 nM
- IC50 [4]: < 100 nM

SMILES: COc1ccc2nccc(Oc3ccc(NC(=O)c4ccc(C)n(-c5ccc(F)cc5C)c4=O)cc3F)c2n1 [Compound 85, N-[3-Fluoro-4-[(6-methoxy-1,5-naphthyridin-4-yl)oxy]phenyl]-1-(4-fluoro-2-methylphenyl)-6-methyl-2-oxopyridine-3-carboxamide]
- IC50 [1]: > 300 nM
- IC50 [2]: < 100 nM
- IC50 [3]: < 100 nM
- IC50 [4]: < 100 nM

SMILES: COc1cc2nccc(Oc3ccc(NC(=O)c4cnc(C)c(-c5ccc(F)cc5C)c4O)cc3F)c2nc1OC [Compound 69, N-[4-[(6,7-Dimethoxy-1,5-naphthyridin-4-yl)oxy]-3-fluorophenyl]-5-(4-fluoro-2-methylphenyl)-4-hydroxy-6-methylpyridine-3-carboxamide]
- IC50 [1]: < 100 nM
- IC50 [2]: < 100 nM
- IC50 [3]: < 100 nM
- IC50 [4]: < 100 nM

SMILES: C=Cc1cc2nccc(Oc3ccc(NC(=O)c4cnc(C)c(-c5ccc(F)cc5)c4O)cc3F)c2nc1OC [Compound 422, N-[4-[(7-ethenyl-6-methoxy-1,5-naphthyridin-4-yl)oxy]-3-fluorophenyl]-5-(4-fluorophenyl)-4-hydroxy-6-methylpyridine-3-carboxamide]
- IC50 [1]: < 100 nM
- IC50 [2]: < 100 nM
- IC50 [3]: < 100 nM
- IC50 [4]: < 100 nM

SMILES: COCCOc1nc2c(Oc3ccc(NC(=O)c4cnc(C)c(-c5ccc(F)cc5)c4O)cc3F)ccnc2cc1OC [Compound 68, N-[3-Fluoro-4-[[7-methoxy-6-(2-methoxyethoxy)-1,5-naphthyridin-4-yl]oxy]phenyl]-5-(4-fluorophenyl)-4-hydroxy-6-methylpyridine-3-carboxamide]
- IC50 [1]: < 100 nM
- IC50 [2]: < 100 nM
- IC50 [3]: < 100 nM
- IC50 [4]: < 100 nM

SMILES: COc1cc2nccc(Oc3ccc(NC(=O)c4cnc(C)c(-c5ccc(F)cc5)c4O)cc3F)c2nc1OCCCN1CCOCC1 [Compound 424, N-[3-fluoro-4-[[7-methoxy-6-(3-morpholin-4-ylpropoxy)-1,5-naphthyridin-4-yl]oxy]phenyl]-5-(4-fluorophenyl)-4-hydroxy-6-methylpyridine-3-carboxamide]
- IC50 [1]: < 100 nM
- IC50 [2]: < 100 nM
- IC50 [3]: < 100 nM
- IC50 [4]: < 100 nM

SMILES: COc1cc2nccc(Oc3ccc(NC(=O)c4cn(-c5cnn(C(F)F)c5)cc(-c5ccc(F)cc5)c4=O)cc3F)c2nc1OC [Compound 60, 1-[1-(Difluoromethyl)pyrazol-4-yl]-N-[4-[(6,7-dimethoxy-1,5-naphthyridin-4-yl)oxy]-3-fluorophenyl]-5-(4-fluorophenyl)-4-oxopyridine-3-carboxamide]
- IC50 [1]: > 300 nM
- IC50 [2]: < 100 nM
- IC50 [3]: < 100 nM
- IC50 [4]: > 300 nM

SMILES: COc1ccc2nccc(Oc3ccc(NC(=O)c4ccc(C)n(-c5ccc(F)cc5)c4=O)cc3F)c2n1 [Compound 84, N-[3-Fluoro-4-[(6-methoxy-1,5-naphthyridin-4-yl)oxy]phenyl]-1-(4-fluorophenyl)-6-methyl-2-oxopyridine-3-carboxamide]
- IC50 [1]: 100 to 300 nM
- IC50 [2]: < 100 nM
- IC50 [3]: < 100 nM
- IC50 [4]: < 100 nM

SMILES: COc1cc2nccc(Oc3ccc(NC(=O)c4cn(C)c(OC)c(-c5ccc(F)cc5)c4=O)cc3F)c2nc1OC [Compound 78, N-[4-[(6,7-Dimethoxy-1,5-naphthyridin-4-yl)oxy]-3-fluorophenyl]-5-(4-fluorophenyl)-6-methoxy-1-methyl-4-oxopyridine-3-carboxamide]
- IC50 [1]: < 100 nM
- IC50 [2]: < 100 nM
- IC50 [3]: < 100 nM
- IC50 [4]: 100 to 300 nM
